Values belong to the compound of their own block, whether it stands above or below them.
How the values were obtained:
Boophilus microplus = Boophilus microplus test (BOOPMI injection); type: in vivo; conditions: 20 μg/animal, injected into the abdomen, after 7 days
Protocol: Solvent: Dimethyl Sulphoxide To produce a suitable preparation of active compound, 10 mg of active compound are mixed with 0.5 ml of solvent, and the concentrate is diluted with water to the desired concentration. The active compound solution is injected into the abdomen (Boophilus microplus) and the animals are transferred into dishes and stored in a climatized room. The activity is monitored for deposition of fertile eggs. After 7 days, the activity in % is determined. 100% means that none of the ticks has laid fertile eggs.

Ctenocephalides felis = Ctenocephalides felis oral (CTECFE); type: in vivo; conditions: 100 ppm in citrated cattle blood, after 2 days
Protocol: Solvent: 1 part by weight of dimethyl sulphoxide To produce a suitable preparation of active compound, 10 mg of active compound are mixed with 0.5 ml of dimethyl sulphoxide. One part of the concentrate is diluted with citrated cattle blood, and the desired concentration is prepared. 20 unfed adult fleas (Ctenocephalides felis) are placed into a chamber whose top and bottom ends are closed with gauze. A metal cylinder whose bottom end is closed with parafilm is placed onto the chamber. The cylinder contains the blood/active compound preparation, which can be taken up by the fleas through the parafilm membrane. After 2 days, the kill in % is determined. 100% means that all fleas have been killed; 0% means that none of the fleas have been killed.

Lucilia cuprina larvae = assay: Lucilia cuprina test (LUCICU); type: in vivo; conditions: 100 ppm, treated horse meat, after 2 days
Protocol: Solvent: Dimethyl Sulphoxide To produce a suitable preparation of active compound, 10 mg of active compound are mixed with 0.5 ml of dimethyl sulphoxide, and the concentrate is diluted with water to the desired concentration. Containers containing horse meat treated with the active compound preparation of the desired concentration are populated with Lucilia cuprina larvae. After 2 days, the kill in % is determined. 100% means that all larvae have been killed; 0% means that none of the larvae have been killed.

[1] = tested on: larvae of the mustard beetle (Phaedon cochleariae); assay: Phaedon test (PHAECO spray treatment); type: in vivo; conditions: 100 g/ha, after 7 days
Protocol: (§1) Solvents: 78.0 parts by weight of acetone • • 1.5 parts by weight of dimethyl formamide Emulsifier: 0.5 part by weight of alkylaryl polyglycol ether To produce a suitable preparation of active compound, 1 part by weight of active compound is mixed with the stated amounts of solvent and emulsifier, and the concentrate is diluted with emulsifier-containing water to the desired concentration. Discs of Chinese cabbage leaves (Brassica pekinensis) are sprayed with an active compound preparation of the desired concentration and, after drying, populated with larvae of the mustard beetle (Phaedon cochleariae). After 7 days, the activity in % is determined. 100% means that all beetle larvae have been killed; 0% means that none of the beetle larvae have been killed. The test was carried out and evaluated as described in Example B.4.

[2] = tested on: caterpillars of the army worm (Spodoptera frugiperda); assay: Spodoptera frugiperda test (SPODFR spray treatment); type: in vivo; conditions: 100 g/ha, after 7 days
Protocol: as §1, with “maize” for “Chinese cabbage”, “(Zea mays)” for “(Brassica pekinensis)”, “caterpillars” for “larvae”, “army worm (Spodoptera frugiperda).” for “mustard beetle (Phaedon cochleariae).”, “caterpillars” for “beetle larvae”, “B.5.” for “B.4.”

[3] = tested on: Boophilus microplus strain Parkhurst (SP-resistant); assay: Boophilus microplus test (DIP); type: in vivo; conditions: 100 ppm
Protocol: Test animals: adult fed females of the Boophilus microplus strain Parkhurst (SP-resistant)
Solvent: Dimethyl sulphoxide
10 mg of active compound are dissolved in 0.5 ml of dimethyl sulphoxide. To produce a suitable formulation, the active compound solution is diluted with water to the particular desired concentration. This active compound preparation is pipetted into tubes. 8-10 ticks are transferred into a further tube provided with holes. The tube is dipped into the active compound preparation, with all ticks being wetted completely. After the liquid has run off, the ticks are transferred to filter discs in plastic dishes and kept in a climatized room. After the desired period of time, the activity is checked for deposition of fertile eggs. Eggs whose fertility is not visible from the outside are kept in glass tubes in a climatized cupboard under the larvae have hatched. An activity of 100% means that no tick has laid fertile eggs.

[4] = logP by HPLC on reversed-phase columns (C 18), EU Guideline 79/831 Annex V.A8; type: physicochemical; conditions: ** LC-MS in the neutral range, pH 7.8, 0.001 molar aqueous ammonium bicarbonate and acetonitrile
adult Musca domestica = assay: Musca domestica test (MUSCDO); type: in vivo; conditions: treated sponge
Protocol: Solvent: Dimethyl sulphoxide To prepare a suitable preparation of active compound, 10 mg of active component are mixed with 0.5 ml of dimethyl sulphoxide, and the concentrate is diluted with water to the desired concentration. Vessels containing a sponge which had been treated with the active compound preparation of the desired concentration are populated with adult Musca domestica. After the desired period of time, the kill in % is determined. 100% means that all flies have been killed; 0% means that none of the flies have been killed.

logP [4]: 3.85**
SMILES: COc1ccc(C=Nc2c(-c3cc(Cl)c4c(c3)OCO4)c(C(F)(F)C(F)F)nn2-c2ncccn2)cc1 [Example 1-23]
activity (no deposition of fertile eggs) (Boophilus microplus): 100% | kill (Ctenocephalides felis): 100% | kill (Lucilia cuprina larvae): 100% | activity (beetle larvae killed) [1]: 100% | activity (caterpillars killed) [2]: 100% | activity (no deposition of fertile eggs) [3]: 100%

logP [4]: 3.9**
SMILES: FC(F)C(F)(F)c1nn(-c2ncccn2)c(N=Cc2ccccc2)c1-c1cc(Cl)c2c(c1)OCO2 [Example 1-24]
activity (no deposition of fertile eggs) (Boophilus microplus): 100% | kill (Ctenocephalides felis): 100% | kill (Lucilia cuprina larvae): 100% | activity (beetle larvae killed) [1]: 100% | activity (caterpillars killed) [2]: 100% | kill (adult Musca domestica; 100 ppm): 80% | activity (no deposition of fertile eggs) [3]: 100%

logP [4]: 4.51**
SMILES: FC(F)(F)c1nn(-c2ncccn2)c(N=Cc2ccc(Cl)cc2)c1-c1cc(Cl)c2c(c1)OCO2 [Example 1-25]
activity (no deposition of fertile eggs) (Boophilus microplus): 100% | kill (Ctenocephalides felis): 100% | kill (Lucilia cuprina larvae): 100% | activity (beetle larvae killed) [1]: 100% | activity (caterpillars killed) [2]: 100% | kill (adult Musca domestica; 20 ppm): 100% | activity (no deposition of fertile eggs) [3]: 100%

logP [4]: 3.97**
SMILES: COc1ccc(C=Nc2c(-c3cc(Cl)c4c(c3)OCO4)c(C(F)(F)F)nn2-c2ncccn2)cc1 [Example 1-26]
activity (no deposition of fertile eggs) (Boophilus microplus): 100% | kill (Ctenocephalides felis): 100% | kill (Lucilia cuprina larvae): 100% | activity (beetle larvae killed) [1]: 100% | activity (caterpillars killed) [2]: 100% | activity (no deposition of fertile eggs) [3]: 100%

logP [4]: 3.82**
SMILES: COc1cc(C=Nc2c(-c3cc(Cl)c4c(c3)OCO4)c(C(F)(F)F)nn2-c2ncccn2)cc(OC)c1OC [Example 1-27]
activity (no deposition of fertile eggs) (Boophilus microplus): 100% | kill (Ctenocephalides felis): 100% | kill (Lucilia cuprina larvae): 100% | activity (beetle larvae killed) [1]: 100% | kill (adult Musca domestica; 100 ppm): 80% | activity (no deposition of fertile eggs) [3]: 100%

logP [4]: 4.85**
SMILES: COc1cc(C=Nc2c(-c3cc(Cl)cc(C(F)(F)F)c3)c(C(F)(F)F)nn2-c2ncccn2)cc(OC)c1OC [Example 1-28]
activity (no deposition of fertile eggs) (Boophilus microplus): 100% | kill (Ctenocephalides felis): 95% | kill (Lucilia cuprina larvae): 100% | activity (beetle larvae killed) [1]: 100% | activity (caterpillars killed) [2]: 83% | kill (adult Musca domestica; 100 ppm): 100%

logP [4]: 4.67**
SMILES: COc1cc(C=Nc2c(-c3cc(Cl)cc(C(F)(F)F)c3)c(C(F)(F)C(F)F)nn2-c2ncccn2)cc(OC)c1OC [Example 1-29]
activity (no deposition of fertile eggs) (Boophilus microplus): 100% | kill (Ctenocephalides felis): 95% | kill (Lucilia cuprina larvae): 100% | activity (beetle larvae killed) [1]: 100% | activity (caterpillars killed) [2]: 100% | kill (adult Musca domestica; 100 ppm): 100%

logP [4]: 3.72**
SMILES: COc1cc(C=Nc2c(-c3cc(Cl)c4c(c3)OCO4)c(C(F)(F)C(F)F)nn2-c2ncccn2)cc(OC)c1OC [Example 1-30]
activity (no deposition of fertile eggs) (Boophilus microplus): 100% | kill (Ctenocephalides felis): 100% | kill (Lucilia cuprina larvae): 100% | activity (beetle larvae killed) [1]: 100% | activity (caterpillars killed) [2]: 100% | activity (no deposition of fertile eggs) [3]: 100%

logP [4]: 3.49**
SMILES: CCOC=Nc1c(-c2cc(Cl)c3c(c2)OCO3)c(C(F)(F)F)nn1-c1ncccn1 [Example 1-33]
activity (no deposition of fertile eggs) (Boophilus microplus): 100% | kill (Ctenocephalides felis): 100% | kill (Lucilia cuprina larvae): 100% | activity (beetle larvae killed) [1]: 100% | activity (caterpillars killed) [2]: 100% | activity (no deposition of fertile eggs) [3]: 100%

logP [4]: 5.46**
SMILES: FC(F)(F)c1cc(Cl)cc(-c2c(C(F)(F)C(F)(F)F)nn(-c3ncccn3)c2N=Cc2ccccc2)c1 [Example 1-42]
activity (no deposition of fertile eggs) (Boophilus microplus): 100% | kill (Ctenocephalides felis): 95% | kill (Lucilia cuprina larvae): 100% | activity (beetle larvae killed) [1]: 100% | activity (caterpillars killed) [2]: 100% | kill (adult Musca domestica; 100 ppm): 100%

logP [4]: 4.58**
SMILES: COc1nccnc1-n1nc(C(F)(F)F)c(-c2cc(Cl)c3c(c2)OCO3)c1N=Cc1ccccc1 [Example 2-6]
activity (no deposition of fertile eggs) (Boophilus microplus): 100% | kill (Ctenocephalides felis): 100% | kill (Lucilia cuprina larvae): 100% | activity (no deposition of fertile eggs) [3]: 100%

logP [4]: 6.01**
SMILES: COc1nccnc1-n1nc(C(F)(F)F)c(-c2cc(Cl)cc(C(F)(F)F)c2)c1N=Cc1ccc(Cl)cc1 [Example 2-7]
activity (no deposition of fertile eggs) (Boophilus microplus): 100% | kill (Ctenocephalides felis): 90% | kill (Lucilia cuprina larvae): 100% | kill (adult Musca domestica; 100 ppm): 90% | activity (no deposition of fertile eggs) [3]: 100%

logP [4]: 5.48**
SMILES: COc1ccc(C=Nc2c(-c3cc(Cl)cc(C(F)(F)F)c3)c(C(F)(F)F)nn2-c2nccnc2OC)cc1 [Example 2-8]
activity (no deposition of fertile eggs) (Boophilus microplus): 100% | kill (Ctenocephalides felis): 95% | kill (Lucilia cuprina larvae): 100% | activity (no deposition of fertile eggs) [3]: 100%

logP [4]: 5.37**
SMILES: COc1nccnc1-n1nc(C(F)(F)C(F)F)c(-c2cc(Cl)cc(C(F)(F)F)c2)c1N=Cc1ccccc1 [Example 2-11]
activity (no deposition of fertile eggs) (Boophilus microplus): 100% | kill (Ctenocephalides felis): 90% | kill (Lucilia cuprina larvae): 100% | kill (adult Musca domestica; 100 ppm): 90% | activity (no deposition of fertile eggs) [3]: 90%

logP [4]: 4.48**
SMILES: COc1nccnc1-n1nc(C(F)(F)C(F)F)c(-c2cc(Cl)c3c(c2)OCO3)c1N=Cc1ccccc1 [Example 2-13]
activity (no deposition of fertile eggs) (Boophilus microplus): 100% | kill (Ctenocephalides felis): 100% | kill (Lucilia cuprina larvae): 100% | kill (adult Musca domestica; 100 ppm): 80% | activity (no deposition of fertile eggs) [3]: 100%

logP [4]: 5.1**
SMILES: COc1nccnc1-n1nc(C(F)(F)F)c(-c2cc(Cl)c3c(c2)OCO3)c1N=Cc1ccc(Cl)cc1 [Example 2-14]
activity (no deposition of fertile eggs) (Boophilus microplus): 100% | kill (Ctenocephalides felis): 100% | kill (Lucilia cuprina larvae): 100% | kill (adult Musca domestica; 100 ppm): 90% | activity (no deposition of fertile eggs) [3]: 100%

logP [4]: 5.35**
SMILES: COc1cc(C=Nc2c(-c3cc(Cl)cc(C(F)(F)F)c3)c(C(F)(F)F)nn2-c2nccnc2OC)cc(OC)c1OC [Example 2-16]
activity (no deposition of fertile eggs) (Boophilus microplus): 100% | kill (Lucilia cuprina larvae): 100% | kill (adult Musca domestica; 100 ppm): 90% | activity (no deposition of fertile eggs) [3]: 100%

logP [4]: 5.12**
SMILES: COc1cc(C=Nc2c(-c3cc(Cl)cc(C(F)(F)F)c3)c(C(F)(F)C(F)F)nn2-c2nccnc2OC)cc(OC)c1OC [Example 2-17]
activity (no deposition of fertile eggs) (Boophilus microplus): 100% | kill (Lucilia cuprina larvae): 100% | kill (adult Musca domestica; 100 ppm): 100% | activity (no deposition of fertile eggs) [3]: 100%

From patent publication US8629273B2, “Diazinylpyrazolyl compounds” (Bayer Intellectual Property GmbH, priority 2009, dated 2014)
